Test results taken from US11312727B1, “Macrocyclic flu endonuclease inhibitors” (Janssen BioPharma, Inc., priority 2018, dated 2022).
pEC50: −log10 of the molar value.

Columns and labels:
[1] = test system: Influenza strain A549 A/WSN/33 (H1N1); experiment: microbe, parasite or virus in culture; assay type: cell-based; conditions: Influenza A virus, A549, 20 h, A549 cells, influenza A/WSN/33 (H1N1), 20 hours incubation; read-out: A549_A(H1N1) EC50
[2] = in vitro; conditions: human, CC50, uninfected A549 cells, CellTiter-Glo

Row | SMILES | pEC50 [1] | CC50 [2] [nM]
1 | C[C@H]1C/C=C/COc2c(F)cccc2[C@H](c2ccccc2)N2CN1C(=O)c1c(O)c(=O)ccn12 (single isomer, unassigned) [Compound 100BA, (2*S,9*S,*E)-33-fluoro-15-hydroxy-9-methyl-2-phenyl-12,13,14,16-tetrahydro-11H-4-oxa-1(1,3)-pyrido[2,1-f][1,2,4]triazina-3(1,2)-benzenacyclononaphan-6-ene-14,16-dione] | 5.28 | 40200
2 | O=C1c2c(O)c(=O)ccn2N2CN1CCCCCc1ccncc1[C@@H]2c1ccccc1 (single isomer, unassigned) [Compound 34B, (18*S)-12-hydroxy-18-phenyl-5,6,7,8,9,18-hexahydro-10,17-methanodipyrido[1,2-b:4′,3′-k][1,2,5]triazacyclotridecine-11,13-dione] | < 6.00 | > 2000
3 | O=C1c2c(O)c(=O)ccn2N2CN1CC/C=C\COc1cc(F)c(F)c3c1[C@@H]2c1ccccc1SC3 (single isomer, unassigned) [Compound 88A, (23b*R, Z)-16,17-difluoro-6-hydroxy-10,13,18,23b-tetrahydro-9H-1,8-methano[1]benzothiepino[5,4,3-lm]pyrido[2,1-i][1,7,10,11]benzoxatriazacyclotetradecine-5,7-dione] | < 6.30 | > 1000
4 | O=C1c2c(O)c(=O)ccn2N2CN1CCCCCCc1ccccc1C2c1ccccc1 (stereo not drawn) [Compound 2, 15-hydroxy-2-phenyl-12,13,14,16-tetrahydro-11H-1(1,3)-pyrido[2,1-f][1,2,4]triazina-3(1,2)-benzenacyclononaphane-14,16-dione] | 6.45 | > 20000
5 | O=C1c2c(O)c(=O)ccn2N2CN1C1(/C=C/COc3c(ccc(F)c3F)[C@@H]2c2ccccn2)CCC1 (single isomer, unassigned) [Compound 172B, (18′*R,*E)-3′,4′-difluoro-12′-hydroxy-18′-(pyridin-2-yl)-6′H,18′H-spiro[cyclobutane-1,9′-[10,17]methanobenzo[b]pyrido[1,2-f][1]oxa[5,6,9]triazacyclotridecine]-11′,13′-dione] | < 7.30 | > 100
6 | O=C1c2c(O)c(=O)ccn2N2CN1C/C=C\COc1c(F)cccc1[C@@H]2c1cccc(F)c1 (single isomer, unassigned) [Compound 59B, (18*S,Z)-4-fluoro-18-(3-fluorophenyl)-12-hydroxy-6,9-dihydro-18H-10,17-methanobenzo[b]pyrido[1,2-f][1]oxa[5,6,9]triazacyclotridecine-11,13-dione] | 6.30 | > 2000
7 | CC[C@@H]1C/C=C/COc2c(F)cccc2[C@@H](c2ccccc2)N2CN1C(=O)c1c(O)c(=O)ccn12 (single isomer, unassigned) [Compound 105AB, (2*R,9*R,*E)-9-ethyl-33-fluoro-15-hydroxy-2-phenyl-12,13,14,16-tetrahydro-11H-4-oxa-1(1,3)-pyrido[2,1-f][1,2,4]triazina-3(1,2)-benzenacyclononaphan-6-ene-14,16-dione] | 8.72 | > 200
8 | CC[C@@H]1/C=C/COc2c(Cl)cccc2[C@H](c2ccccc2)N2CN1C(=O)c1c(O)c(=O)ccn12 (single isomer, unassigned) [Compound 98AB, (9*R,18*S,E)-4-chloro-9-ethyl-12-hydroxy-18-phenyl-6,9-dihydro-18H-10,17-methanobenzo[b]pyrido[1,2-f][1]oxa[5,6,9]triazacyclotridecine-11,13-dione] | 8.66 | > 200
9 | O=C1c2c(O)c(=O)ccn2N2CN1C/C=C\COc1ccc(F)cc1[C@@H]2c1ccccc1 (single isomer, unassigned) [Compound 22B, (18*S,Z)-2-fluoro-12-hydroxy-18-phenyl-6,9-dihydro-18H-10,17-methanobenzo[b]pyrido[1,2-f][1]oxa[5,6,9]triazacyclotridecine-11,13-dione] | 7.92 | > 1000
10 | O=C1c2c(O)c(=O)ccn2N2CN1C/C=C\COc1c(F)cccc1[C@@H]2c1ccccc1 (single isomer, unassigned) [Compound 61B, (18*S,Z)-4-fluoro-12-hydroxy-18-phenyl-6,9-dihydro-18H-10,17-methanobenzo[b]pyrido[1,2-f][1]oxa[5,6,9]triazacyclotridecine-11,13-dione] | 6.81 | > 2000
11 | O=C1c2c(O)c(=O)ccn2N2CN1CCOCCOc1ccccc1[C@H]2c1ccccc1 (single isomer, unassigned) [Compound 99A, (2*R)-18-hydroxy-2-phenyl-9,12-dioxa-1,15,22-triazatetracyclo[13.7.1.03,8.017,22]tricosa-3,5,7,17,20-pentaene-16,19-dione] | < 6.30 | > 1000
12 | O=C1c2c(O)c(=O)ccn2N2CN1CC/C=C\COc1cccc3c1[C@@H]2c1ccccc1CC3 (single isomer, unassigned) [Compound 28B] | 8.22 | > 400
13 | O=C1c2c(O)c(=O)ccn2N2CN1CC/C=C/COc1cccc3c1[C@@H]2c1ccccc1SC3 (single isomer, unassigned) [Compound 37C] | < 6.00 | > 2000
14 | O=C1c2c(O)c(=O)ccn2N2CN1CCC1C[C@@H]1COc1cccc3c1[C@@H]2c1ccccc1SC3 (single isomer, unassigned) [Compound 131AB, (1*R,13*R,15*S)-7-hydroxy-17-oxa-24-thia-2,3,10-triazaheptacyclo[16.12.1.12,10.03,8.013,15.022,31.025,30]dotriaconta-4,18,20,22(31),25(30),26,28-heptaene-6,9-dione] | 7.77 | > 200
15 | O=C1c2c(O)c(=O)ccn2N2CN1C/C=C\COc1cc(C(F)F)ccc1[C@H]2c1ccccc1 (single isomer, unassigned) [Compound 94B, (18*R,Z)-3-(difluoromethyl)-12-hydroxy-18-phenyl-6,9-dihydro-18H-10,17-methanobenzo[b]pyrido[1,2-f][1]oxa[5,6,9]triazacyclotridecine-11,13-dione] | < 6.30 | > 1000
16 | O=C1c2c(O)c(=O)ccn2N2CN1C/C=C\COc1ccccc1[C@H]2c1cccc(F)c1 (single isomer, unassigned) [Compound 63A, (18*R,Z)-18-(3-fluorophenyl)-12-hydroxy-6,9-dihydro-18H-10,17-methanobenzo[b]pyrido[1,2-f][1]oxa[5,6,9]triazacyclotridecine-11,13-dione] | < 6.00 | > 2000
17 | O=C1c2c(O)c(=O)ccn2N2CN1C/C=C\COc1c(OC(F)(F)F)cccc1[C@@H]2c1ccccc1 (single isomer, unassigned) [Compound 134B, (18*S,Z)-12-hydroxy-18-phenyl-4-(trifluoromethoxy)-6,9-dihydro-18H-10,17-methanobenzo[b]pyrido[1,2-f][1]oxa[5,6,9]triazacyclotridecine-11,13-dione] | < 7.00 | > 200
18 | COC[C@@H]1/C=C/COc2ccccc2[C@H](c2ccccc2)N2CN1C(=O)c1c(O)c(=O)ccn12 (single isomer, unassigned) [Compound 150B, (9*S,18*S,*E)-12-hydroxy-9-(methoxymethyl)-18-phenyl-6,9-dihydro-18H-10,17-methanobenzo[b]pyrido[1,2-f][1]oxa[5,6,9]triazacyclotridecine-11,13-dione] | 5.49 | > 10000
19 | O=C1c2c(O)c(=O)ccn2N2CN1CC/C=C/COc1cc(F)ccc1[C@@H]2c1ccccc1 (single isomer, unassigned) [Compound 77A, (7E,19*R)-3-fluoro-13-hydroxy-19-phenyl-9,10-dihydro-6H,19H-11,18-methanopyrido[2,1-i][1,7,10,11]benzoxatriazacyclotetradecine-12,14-dione] | 5.28 | 33200
20 | O=C1c2c(O)c(=O)ccn2N2CN1C/C=C\COc1c(ccc(F)c1F)[C@@H]2c1ccccc1C1CC1 (single isomer, unassigned) [Compound 136B, (18*S,*Z)-18-(2-cyclopropylphenyl)-3,4-difluoro-12-hydroxy-6,9-dihydro-18H-10,17-methanobenzo[b]pyrido[1,2-f][1]oxa[5,6,9]triazacyclotridecine-11,13-dione] | < 7.00 | > 200
21 | O=C1c2c(O)c(=O)ccn2N2CN1CC/C=C\COc1cccc3c1[C@@H]2c1ccccc1SC3 (single isomer, unassigned) [Compound 37A, (1*R,13Z)-7-hydroxy-16-oxa-23-thia-2,3,10-triazahexacyclo[15.12.1.12,10.03,8.021,30.024,29]hentriaconta-4,7,13,17,19,21(30),24(29),25,27-nonaene-6,9-dione] | 4.91 | > 2000
22 | O=C1c2c(O)c(=O)ccn2N2CN1C/C=C\COc1c(OC(F)(F)F)cccc1[C@H]2c1ccccc1 (single isomer, unassigned) [Compound 134A, (18*R,Z)-12-hydroxy-18-phenyl-4-(trifluoromethoxy)-6,9-dihydro-18H-10,17-methanobenzo[b]pyrido[1,2-f][1]oxa[5,6,9]triazacyclotridecine-11,13-dione] | 7.16 | > 200
23 | CC[C@@H]1/C=C/COc2c(ccc(F)c2F)[C@H](c2ccccc2)N2CN1C(=O)c1c(O)c(=O)ccn12 [Compound 101BB, (9R,18S,E)-9-ethyl-3,4-difluoro-12-hydroxy-18-phenyl-6,9-dihydro-18H-10,17-methanobenzo[b]pyrido[1,2-f][1]oxa[5,6,9]triazacyclotridecine-11,13-dione] | 5.30 | 29900
24 | O=C1c2c(O)c(=O)ccn2N2CN1C/C=C\COc1c(cccc1C(F)(F)F)[C@H]2c1ccccc1 (single isomer, unassigned) [Compound 130A, (18*R,Z)-12-hydroxy-18-phenyl-4-(trifluoromethyl)-6,9-dihydro-18H-10,17-methanobenzo[b]pyrido[1,2-f][1]oxa[5,6,9]triazacyclotridecine-11,13-dione] | 8.32 | > 200
